From patent US9353090B2, “Heterocyclic carboxylic acids as activators of soluble guanylate cyclase” (Boehringer Ingelheim International GmbH, priority 2014, dated 2016)
Converted amounts (≈) assume the structure as drawn.

Experiments:
[1] = molecular target: human soluble guanylate cyclase alpha 1 and beta 1 subunits (sGC) (Homo sapiens (Human), UniProt Q02108+Q02153); test: sGC cellular activator assay (cGMP, HTRF), in the presence and absence of 50% human serum; assay type: cell-based; details: CHO cells stably expressing human sGC alpha 1/beta 1, preincubated with 40 microM ODQ; cGMP by HTRF; Table 2 does not state whether with or without 50% human serum
Description: The sGC cellular activator assay is performed in the presence and absence of 50% human serum (HS) using Chinese hamster ovary cells that have been stably transfected to express the human soluble guanylate cyclase alpha 1 and beta 1 subunits (sGC). Cells are preincubated with 40 microM 1H-[1,2,4]oxadiazolo[4,3-a]quinoxalin-1-one (ODQ), an sGC inhibitor, for one h in buffer containing 0.1% bovine serum albumin and 3-isobutyl-1-methylxanthine (IBMX). Concentration response curves are prepared for test compounds in DMSO. An intermediate dilution of the compounds is performed in either buffer containing IBMX or type AB HS containing IBMX. Diluted compounds are added to cells and they are incubated at room temperature for thirty min. cGMP is measured using a CisBio homogeneous time resolved fluorescence kit and the EC50 is calculated for each compound.
Representative compounds of the present invention were tested for activity the above assay. Preferred compounds have an EC50 of <1,000 nM in the above assay and more preferred compounds have an EC50<200 nM.

[2] = Human liver microsome (HLM) metabolic stability assay; assay type: in vitro ADME; details: human liver microsomes
Description: The 5 time point, high-throughput human liver microsome (HLM) metabolic stability assay is designed to determine in vitro compound metabolism. Compounds are incubated with HLMs at a concentration of 1 uM, at 37° C., for a total of 60 min. The percent of compound remaining at 5, 15, 30, and 60 min is used to calculate the t1/2 (min), CLint (mL/min/kg), CLh (mL/min/kg), and % Qh. The assay is based on a 96-well format and can accommodate up to 92 compounds per plate (n=1).
Using the 96-well multi-channel head, the Biomek FX, equipped with a Peltier heating block/shaker, is programmed to accomplish the following steps: • 1. Pipette 175 uL of 1.15 mg/mL microsomes into each of the 96 conical inserts (Analytical Sales and Products, catalog number 96PL05) that fit into the plate of the Peltier heating block/shaker (the incubation plate) • 2. Add 5 uL of compounds from the assay plate to the microsomes and shake the mixture at 600 rpm at 42.1° C. for 10 min (a setting of 42.1° C. on the Peltier is required for the samples to incubate at 37° C.) • 3. After 10 min, prompt the user to add the NADPH plate to the deck and add 20 uL from the NADPH plate to the incubation plate to start the reaction • 4. Add 215 uL of 100%, cold acetonitrile containing an internal standard(s) to a 0 minute, 5 minute, 15 minute, 30 minute, and 60 minute “quench” plate • 5. At 0 min, 5 min, 15 min, 30 min, and 60 min into the incubation, aspirate 12 uL from the incubation mixture and add it to the quench solution to stop the reaction • 6. Add 185 uL HPLC grade water to each well of the 0, 5, 15, 30 and 60 minute quench plates to dilute compounds to the appropriate concentration for the mass spectrometer
After all time points are collected, the quench plates are sealed with 96-well pierceable plate mats or heat sealing foil and centrifuged at 3000 rpm for 15 min to pellet the microsomes.
The plates are analyzed using LC/MS/MS with electron spray ionization (ESI) and the previously determined MRM transitions. The LC method includes the following parameters:
Using an Excel template in Activitybase, the peak areas corresponding to 5, 15, 30 and 60 min are compared to the peak area at 0 min to calculate the percent of remaining compound using the following equation:
Percent compound remaining=(AUC at Time t min/AUC at Time 0 min)×100 where t=0, 5, 15, 30 or 60 min.
Time (min) is plotted against the natural logarithm (Ln) of the percent compound remaining to determine the slope. The slope is used to calculate t1/2 (min) using the equation, t1/2=0.693/slope.
Clh, Hepatic clearance • Hepatic flow*f(u)*Clint/(hepatic flow+f(u)*Clint)
Qh, % Hepatic blood flow • (Clh/Hepatic flow)*100
Preferred compounds have % Qh values of less than 24.

physchem = details: kinetic from dmso stock
Description: Solubility is measured by the following method.
100 uL, 10 mM DMSO stock solution of each compound is prepared in a 96 well plate format. The experiment is done in single determination at 3 pH values (2.2, 4.5 and 6.8). For each pH and one reference, 40 uL of each compound is needed.
McIlvaine pH 2.2: To 2.076 g citric acid monohydrate and 0.043 g Na2HPO4×2H2O add 100 ml deionized water
McIlvaine pH 4.5: To 1.166 g citric acid monohydrate and 1.585 g Na2HPO4×2H2O add 100 ml deionized water
McIlvaine pH 6.8: To 0.476 g citric acid monohydrate and 2.753 g Na2HPO4×2H2O add 100 ml deionized water
With a suitable liquid handling device (Multipette® or a liquid handler) 390 uL of each buffer solution and 10 uL of compound is added to each well of a 96 deep well plate. The plates are covered firmly and shaken for 24 h on an over head shaker (at 54 RPM) at room temperature. The DMSO content in the final buffer is 2.5% v/v.
After 24 h the plates are centrifuged to remove droplets on the lid before opening (for ˜5 min at 2500 RPM).
The filtration is done under vacuum with Millipore 96 well filter plate. Filtrate is collected in a deep well plate and transferred to a suitable plate for UPLC analysis.
The reference plate is prepared by adding 10 uL of compound to 390 uL of 50:50 acetonitrile/water in a 96 deep well plate and transferred to a suitable plate for UPLC analysis. Wells are checked visually for precipitation, any presence noted under comments in reported results.
The samples are measured with UPLC-UV using the chromatographic method described below.
Waters Empower®2 software is used for generating Sample Sets (according to the plate layout), Sample Set Methods and Instrument Methods.
One Sample Set comprises the methods for three 96 well plates (one reference plate and two sample plates, and includes one Sample Set Method and one Instrument Method).
Data Processing and Analysis
The UV chromatograms collected at 254 nm are integrated and processed.
It is assumed that the compound is completely dissolved in the reference solution (50:50 acetonitrile/water)

[3] = pH 2.2, aqueous buffer, Solubility (pH 2.2)
[4] = pH 4.5, aqueous buffer, Solubility (pH 4.5)
[5] = pH 6.8, aqueous buffer, Solubility (pH 6.8)

human soluble guanylate cyclase alpha 1 and beta 1 subunits (sGC), sequence (Q02108 whole entry partner): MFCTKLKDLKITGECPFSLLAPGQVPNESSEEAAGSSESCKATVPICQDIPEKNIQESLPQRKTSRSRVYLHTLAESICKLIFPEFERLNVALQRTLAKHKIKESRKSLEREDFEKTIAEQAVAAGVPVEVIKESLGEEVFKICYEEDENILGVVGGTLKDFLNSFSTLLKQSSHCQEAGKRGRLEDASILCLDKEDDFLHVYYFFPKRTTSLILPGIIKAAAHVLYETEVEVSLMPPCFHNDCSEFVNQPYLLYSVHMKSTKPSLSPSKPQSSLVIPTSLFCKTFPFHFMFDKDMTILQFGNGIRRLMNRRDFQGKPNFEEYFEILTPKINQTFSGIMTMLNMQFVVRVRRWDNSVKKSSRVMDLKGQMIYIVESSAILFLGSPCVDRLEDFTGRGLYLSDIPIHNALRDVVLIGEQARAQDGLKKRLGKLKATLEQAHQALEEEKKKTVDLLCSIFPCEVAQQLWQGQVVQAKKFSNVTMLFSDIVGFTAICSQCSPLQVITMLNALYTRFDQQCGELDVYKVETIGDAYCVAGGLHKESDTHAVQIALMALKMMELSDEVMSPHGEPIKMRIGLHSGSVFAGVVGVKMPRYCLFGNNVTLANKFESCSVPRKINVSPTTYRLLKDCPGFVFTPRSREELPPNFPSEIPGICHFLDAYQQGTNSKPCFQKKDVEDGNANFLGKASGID
human soluble guanylate cyclase alpha 1 and beta 1 subunits (sGC), sequence (Q02153 whole entry): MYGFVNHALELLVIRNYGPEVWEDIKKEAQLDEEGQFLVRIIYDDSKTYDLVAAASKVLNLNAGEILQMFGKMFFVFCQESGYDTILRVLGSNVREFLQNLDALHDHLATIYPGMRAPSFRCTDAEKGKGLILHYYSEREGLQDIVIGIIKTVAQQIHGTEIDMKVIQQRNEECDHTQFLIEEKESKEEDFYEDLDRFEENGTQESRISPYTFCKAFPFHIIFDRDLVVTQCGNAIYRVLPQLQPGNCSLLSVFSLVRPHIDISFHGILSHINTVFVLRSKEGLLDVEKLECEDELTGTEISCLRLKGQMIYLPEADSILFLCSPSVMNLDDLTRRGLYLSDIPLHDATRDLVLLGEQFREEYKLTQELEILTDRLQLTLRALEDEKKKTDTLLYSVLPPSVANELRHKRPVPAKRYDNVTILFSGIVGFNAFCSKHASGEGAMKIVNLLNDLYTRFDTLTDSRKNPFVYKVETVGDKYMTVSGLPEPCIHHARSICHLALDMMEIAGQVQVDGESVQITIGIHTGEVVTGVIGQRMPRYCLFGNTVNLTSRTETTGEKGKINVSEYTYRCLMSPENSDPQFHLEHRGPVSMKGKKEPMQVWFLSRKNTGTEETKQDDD

Row | Compound | EC50 [1] | Metabolic stability (Qh %), % hepatic blood flow [2] | solubility at 24 h (physchem; [3]) | solubility at 24 h (physchem; [4]) | solubility at 24 h (physchem; [5])
1 | COC[C@H]1N(c2cccc(-c3cccc(C)c3OCc3cc(C)c4c(c3)CCN(C3CCOC3)C4)n2)C[C@@H]2C[C@@]21C(=O)O (single isomer, unassigned) [Compound 51] | 27 nM | 28% | 110 µg/mL (≈ 188 µM) | 94 µg/mL (≈ 161 µM) | 74 µg/mL (≈ 127 µM)
2 | CCO[C@H]1CN(c2nccc(-c3cccc(C)c3OCc3ccc4c(c3C)CCN(C3CCOCC3)CC4)n2)CC[C@H]1C(=O)O [Compound 275] | 32 nM | 28% | 117 µg/mL (≈ 190 µM) | 81.3 µg/mL (≈ 132 µM) | 84.5 µg/mL (≈ 137 µM)
3 | CO[C@@H]1CN(c2cccc(-c3cccc(C)c3OCc3ccc4c(c3C)CCN(C3COC3)CC4)n2)CC[C@H]1C(=O)O [Compound 290] | 228 nM | <24% | 119 µg/mL (≈ 208 µM) | 80 µg/mL (≈ 140 µM) | 66.5 µg/mL (≈ 116 µM)
4 | CO[C@@H]1CN(c2cccc(-c3cccc(C)c3OCc3ccc4c(c3C)CCN(C3CCOC3)CC4)n2)CC[C@@H]1C(=O)O (stereo partly drawn) [Compound 283] | 4 nM | <24% | 124 µg/mL (≈ 212 µM) | 89.4 µg/mL (≈ 153 µM) | 68.4 µg/mL (≈ 117 µM)
5 | Cc1c(COc2ccccc2-c2cccc(N3CC[C@@]4(C(=O)O)C[C@H]4C3)n2)ccc2c1CCNC2 [Compound 305] | 340 nM | 30% | 108 µg/mL (≈ 231 µM) | 81.2 µg/mL (≈ 173 µM) | 0.7 µg/mL (≈ 1.49 µM)
6 | CO[C@H]1CN(c2cccc(-c3cccc(C)c3OCc3ccc4c(c3C)CCN(C3COC3)C4)n2)CC[C@H]1C(=O)O [Compound 66] | 20 nM | 33% | 100 µg/mL (≈ 179 µM) | 84 µg/mL (≈ 151 µM) | 64 µg/mL (≈ 115 µM)
7 | Cc1cccc(-c2cccc(N3C[C@@H]4C[C@]4(C(=O)O)C3)n2)c1OCc1ccc2c(c1)CCN(C1CCOCC1)CC2 [Compound 31] | 7 nM | <24% | 110 µg/mL (≈ 199 µM) | 95 µg/mL (≈ 172 µM) | 67 µg/mL (≈ 121 µM)
8 | COCc1cc(COc2c(C)cccc2-c2cccc(N3C[C@@H]4C[C@]4(C(=O)O)[C@H]3COC)n2)cc2c1CN(C1COC1)CC2 [Compound 281] | 267 nM | 25% | 120 µg/mL (≈ 200 µM) | 87.4 µg/mL (≈ 146 µM) | 83.1 µg/mL (≈ 139 µM)
9 | COC[C@H]1N(c2cccc(-c3cccc(C)c3OCc3cc(F)c4c(c3)CCN(C3CCOCC3)CC4)n2)C[C@@H]2C[C@@]21C(=O)O [Compound 243] | 3 nM | <24% | 131 µg/mL (≈ 212 µM) | 124 µg/mL (≈ 201 µM) | 107 µg/mL (≈ 174 µM)
10 | Cc1ccc(OCc2ccc3c(c2)CCN(C2COC2)CC3)c(-c2csc(N3C[C@@H]4C[C@]4(C(=O)O)C3)n2)c1 [Compound 148] | 67 nM | <24% | 93 µg/mL (≈ 175 µM) | 8.4 µg/mL (≈ 15.8 µM) | 1.1 µg/mL (≈ 2.07 µM)
11 | Cc1c(COc2ccccc2-c2cccc(N3CC[C@@]4(C(=O)O)C[C@H]4C3)n2)ccc2c1CCN(CC1COCCO1)C2 (stereo partly drawn) [Compound 5] | 3 nM | 35% | 160 µg/mL (≈ 281 µM) | 140 µg/mL (≈ 246 µM) | 79 µg/mL (≈ 139 µM)
12 | Cc1ccc(OCc2ccc3c(c2C)CCN(C2CCOCC2)C3)c(-c2csc(N3CC[C@@]4(C(=O)O)C[C@H]4C3)n2)c1 [Compound 115] | 11 nM | <24% | 130 µg/mL (≈ 227 µM) | 36 µg/mL (≈ 62.7 µM) | 5.1 µg/mL (≈ 8.89 µM)
13 | Cc1cccc(-c2cccc(N3CC[C@@]4(C(=O)O)C[C@H]4C3)n2)c1OCc1ccc2c(c1C)CCN(C1CCOCC1)C2 [Compound 14] | 3 nM | 61% | 120 µg/mL (≈ 211 µM) | 94 µg/mL (≈ 166 µM) | 53 µg/mL (≈ 93.4 µM)
14 | Cc1ccc(OCc2ccc3c(c2)CCN(C2CCOCC2)C3)c(-c2csc(N3C[C@@H]4C[C@]4(C(=O)O)C3)n2)c1 [Compound 145] | 162 nM | <24% | 110 µg/mL (≈ 202 µM) | 62 µg/mL (≈ 114 µM) | 28 µg/mL (≈ 51.3 µM)
15 | Cc1c(COc2ccccc2-c2ccnc(N3C[C@@H]4C[C@]4(C(=O)O)C3)n2)ccc2c1CCN(C1CCOCC1)C2 [Compound 188] | 150 nM | <24% | 110 µg/mL (≈ 203 µM) | 50 µg/mL (≈ 92.5 µM) | 54 µg/mL (≈ 99.9 µM)
16 | Cc1cc(COc2c(C)cccc2-c2csc(N3CC[C@@]4(C(=O)O)C[C@H]4C3)n2)cc2c1CN(C1CCOCC1)CC2 [Compound 96] | 2 nM | 33% | 120 µg/mL (≈ 209 µM) | 68 µg/mL (≈ 119 µM) | 52 µg/mL (≈ 90.6 µM)

Further lines, results first:

Row | EC50 [1] | Metabolic stability (Qh %), % hepatic blood flow [2] | solubility at 24 h (physchem; [3]) | solubility at 24 h (physchem; [4]) | solubility at 24 h (physchem; [5]) | Compound
17 | 4 nM | <24% | 133 µg/mL (≈ 220 µM) | 97.1 µg/mL (≈ 161 µM) | 74.4 µg/mL (≈ 123 µM) | CO[C@H]1CN(c2cccc(-c3cccc(C)c3OCc3ccc4c(c3F)CCN(C3CCOCC3)CC4)n2)CC[C@H]1C(=O)O [Compound 277]
18 | 18 nM | <24% | 110 µg/mL (≈ 184 µM) | 69 µg/mL (≈ 115 µM) | 83 µg/mL (≈ 139 µM) | COC[C@H]1N(c2cccc(-c3cccc(C)c3OCc3cc(C)c4c(c3)CCN(C3CCOCC3)C4)n2)C[C@@H]2C[C@@]21C(=O)O [Compound 48]
19 | 2 nM | <24% | 120 µg/mL (≈ 208 µM) | 55 µg/mL (≈ 95.5 µM) | 8.1 µg/mL (≈ 14.1 µM) | Cc1ccc(OCc2ccc3c(c2)CCN(CC2COCCO2)C3)c(-c2csc(N3CC[C@@]4(C(=O)O)C[C@H]4C3)n2)c1 (stereo partly drawn) [Compound 112]
20 | 4 nM | <24% | 118 µg/mL (≈ 193 µM) | 109 µg/mL (≈ 178 µM) | 107 µg/mL (≈ 176 µM) | CO[C@@H]1CN(c2nc(-c3cccc(C)c3OCc3cc(F)c4c(c3)CCN(C3CCOCC3)CC4)cs2)CC[C@@H]1C(=O)O [Compound 244]
21 | 5 nM | 87% | 126 µg/mL (≈ 205 µM) | 123 µg/mL (≈ 200 µM) | 117 µg/mL (≈ 191 µM) | CCO[C@@H]1CN(c2cccc(-c3cccc(C)c3OCc3ccc4c(c3C)CCN(C3CCOCC3)CC4)n2)CC[C@@H]1C(=O)O [Compound 239]
22 | 8 nM | <24% | 143 µg/mL (≈ 234 µM) | 88.6 µg/mL (≈ 145 µM) | 76.8 µg/mL (≈ 125 µM) | CO[C@H]1CN(c2nc(-c3cccc(Cl)c3OCc3ccc4c(c3C)CCN(C3CCOCC3)C4)cs2)CC[C@H]1C(=O)O [Compound 207]
23 | 7 nM | 25% | 170 µg/mL (≈ 280 µM) | 69.5 µg/mL (≈ 115 µM) | 37.7 µg/mL (≈ 62.2 µM) | CO[C@@H]1CN(c2cccc(-c3cccc(Cl)c3OCc3cc(C)c4c(c3)CCN(C3CCOCC3)C4)n2)CC[C@@H]1C(=O)O [Compound 255]
24 | 130 nM | <24% | 113 µg/mL (≈ 181 µM) | 80.5 µg/mL (≈ 129 µM) | 78 µg/mL (≈ 125 µM) | Cc1cccc(-c2cccc(N3CC[C@H](C(=O)O)[C@@H]4OCCC[C@H]43)n2)c1OCc1ccc2c(c1C)CCN(C1CCOCC1)CC2 [Compound 337]
